≈ marks a conversion by molar mass, not a printed value.
Key:
[1] = target: PfENR; conditions: cited from earlier work
[2] = tested on: T. gondii parasites; conditions: read-out: IC50, growth of T. gondii parasites; cited from earlier work
[3] = tested on: T. gondii tachyzoites (RH-YFP); format: cell-based, Toxoplasma gondii; conditions: 72 h
[4] = target: T1, TgENR (Toxoplasma gondii, UniProt Q6UCJ9); assay: Thermal shift assay, ligand binding to TgENR alone; conditions: read-out: Kd of NAD^+ binding to TgENR; TSA, binary complex
T1 sequence (Q6UCJ9 103-417 limits assumed): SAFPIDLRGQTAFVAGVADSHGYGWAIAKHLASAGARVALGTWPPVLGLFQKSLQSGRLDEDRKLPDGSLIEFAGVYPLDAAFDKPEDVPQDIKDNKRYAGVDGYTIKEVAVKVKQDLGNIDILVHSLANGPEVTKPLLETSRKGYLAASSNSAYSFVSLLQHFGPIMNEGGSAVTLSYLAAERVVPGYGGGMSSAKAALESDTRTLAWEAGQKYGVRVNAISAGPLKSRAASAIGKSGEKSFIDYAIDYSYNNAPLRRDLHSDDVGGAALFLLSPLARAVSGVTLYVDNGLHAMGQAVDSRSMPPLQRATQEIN

## NC(=O)C1=CN([C@@H]2O[C@H](COP(=O)(O)OP(=O)(O)OC[C@H]3O[C@@H](n4cnc5c(N)ncnc54)[C@H](O)[C@@H]3O)[C@@H](O)[C@H]2O)C=CC1 [NADH, nicotinamide adenine dinucleotide]
[1]; read-out: Kd for NADH, PfENR
  Kd: 51.6 µM

## Oc1cc(Cl)ccc1Oc1ccc(Cl)cc1Cl [Triclosan, triclosan]
[2]
  IC50: ~0.2 µM
[3]; RH-YFP tachyzoites in HFF, ± SEM
  T. gondii MIC50: 2.8 ± 0.2 µM
[3]; Toxoplasma gondii, read-out: T. gondii MIC50
  MIC50: 2.8 µM (≈ 0.811 µg/mL)
[1]; PfENR
  forward rate constant of tight binding complex formation: 0.055 s⁻¹

## NC(=O)c1ccc[n+]([C@@H]2O[C@H](COP(=O)([O-])OP(=O)(O)OC[C@H]3O[C@@H](n4cnc5c(N)ncnc54)[C@H](O)[C@@H]3O)[C@@H](O)[C@H]2O)c1 [NAD^+]
[4]
  Kd: 6000 µM

Source: article PMC3953223 (Biochemistry, 2013)
